Test results published in patent US20240336627A1, “NOVEL COMPOUNDS FOR THE DIAGNOSIS OF TDP-43 PROTEINOPATHIES” (AC IMMUNE SA, priority 2021, published 2024).
Marks after values point to notes of the source that are not given here.

Biological target: T1, Human brain derived TDP-43 aggregates (Homo sapiens, UniProt Q13148)
T1 construct: A sample of brain tissue (frontal or temporal cortex) was homogenized; from tissue; host or cells: sarkosyl-insoluble fraction of human FTD brain (frontal or temporal cortex)
T1 sequence (Q13148 whole entry): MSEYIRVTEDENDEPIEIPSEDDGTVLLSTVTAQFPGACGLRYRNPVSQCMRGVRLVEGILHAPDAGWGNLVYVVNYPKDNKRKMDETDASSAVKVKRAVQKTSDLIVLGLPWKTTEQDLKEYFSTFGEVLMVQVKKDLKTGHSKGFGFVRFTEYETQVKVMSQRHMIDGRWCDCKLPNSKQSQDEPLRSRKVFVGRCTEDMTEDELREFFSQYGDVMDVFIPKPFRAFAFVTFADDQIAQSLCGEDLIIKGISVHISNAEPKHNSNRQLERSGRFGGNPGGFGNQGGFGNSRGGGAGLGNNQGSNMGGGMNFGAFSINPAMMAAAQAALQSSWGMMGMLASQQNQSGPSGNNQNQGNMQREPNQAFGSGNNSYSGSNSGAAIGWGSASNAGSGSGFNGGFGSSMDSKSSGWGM
Assay: Micro-radiobinding competition assay on human FTD sarkosyl-insoluble brain extracts
Assay type: binding
Conditions: for Human brain derived TDP-43 aggregates Mean % competition at 250 nM: 250 nM test compound; for Human brain derived TDP-43 aggregates Mean % competition at 2 μM: 2 μM test compound; for Ki: 0.24 nM to 2 μM test compound
Description: Human brain extracts were prepared as described in Laferriere et al., 2019, Nature Neurosc. A sample of brain tissue (frontal or temporal cortex) was homogenized at 1:4 (w/v) ratio in the homogenization-solubilization (HS) buffer at 4° C. using tissue homogenizer (Precellys) with CKmix homogenization tubes. The following sequence was used for homogenization: 3 cycles of 30 seconds at 5000 rpm (with 15 seconds pause between each cycle). Homogenized samples were aliquoted and stored at −80° C. in 1.5 mL low protein binding tubes.
Brain homogenates were thawed on ice and resuspended in HS buffer to obtain a final concentration of 2% sarkosyl, 1 unit/μL Benzonase and 1 mM MgCl2. The samples were then incubated at 37° C. under constant shaking at 600 rpm on a thermomixer for 45 minutes (min). The supernatants were collected in a new tube (sarkosyl-soluble fraction, S1). The pellet was resuspended in 1000 μL of myelin floatation buffer and centrifuged at 20,000 g for 60 min at 4° C. The supernatant was carefully removed to remove all the floating lipids. This step was repeated if all the lipids could not be removed in a single step. The pellet was subsequently washed with Phosphate-Buffered Saline (PBS) and centrifuged for 30 min at 20,000 g at 4° C. The final pellet was resuspended in 200 μL PBS and stored at −80° C. (sarkosyl-insoluble fraction). The samples were analyzed by immunoblotting in denaturing conditions.
Human FTD sarkosyl-insoluble brain extracts were spotted onto microarray slides. The slides were incubated with [^3H]-Compound 52 or [^3H]-Compound 16 ligands at 75 nM or 40 nM, respectively, and the example compounds (non-radiolabelled) at 2 μM and 250 nM. In some cases, the non-radiolabelled example compounds were further assessed for a range of different concentrations, varying from 0.24 nM to 2 μM for determination of the inhibition constant (Ki). After incubation, slides were washed and scanned by a real-time autoradiography system (BeaQuant, ai4R). Quantification of the signal was performed by using the Beamage image analysis software (ai4R). Non-specific signal was determined with an excess of non-radiolabelled compound 52 or compound 16 (2 μM) and specific binding was calculated by subtracting the non-specific signal from the total signal. Competition was calculated as percent, where 0% was defined as the specific binding in the presence of vehicle and 100% as the values obtained in the presence of excess of the non-radiolabelled compound 52 or compound 16. Ki values were calculated in GraphPad Prism7 by applying a nonlinear regression curve fit using a one site, specific binding model. Measurements were performed with at least two technical replicates in the two-concentration competition experiment and with one technical replicate in the experiments including a range of concentrations. For compounds tested in more than one experiment, the mean of the replicates or Ki values in independent experiments is reported.

[1] = radioligand [3H]-Compound 16 (40 nM)
[2] = radioligand [3H]-Compound 52 (75 nM)

Row | SMILES | Human brain derived TDP-43 aggregates Mean % competition at 250 nM [1] | Human brain derived TDP-43 aggregates Mean % competition at 2 μM [1] | Ki [1] [nM] | Human brain derived TDP-43 aggregates Mean % competition at 250 nM [2] | Human brain derived TDP-43 aggregates Mean % competition at 2 μM [2] | Ki [2] [nM]
1 | N#Cc1c(N)cccc1N1CCc2nc(-c3cnc(N4CC[C@@H](F)C4)cn3)sc2C1=O [Example 40] | 54.6^c % | 77.9^c % | 104 | – | – | –
2 | N#Cc1c(N)cccc1N1CCc2nc(-c3cnc(N4CCC(F)CC4)cn3)sc2C1=O [Example 39] | 64.5^c % | 77.4^c % | 148 | – | – | –
3 | Nc1cc(N2CCc3nc(-c4cnc(N5CCCC5)nc4)sc3C2=O)ccc1F [Example 42] | – | – | – | 43.8ª % | 79.6ª % | –
4 | N#Cc1c(N)cccc1N1CCc2nc(-c3cnc(N4CC[C@H](F)C4)cn3)sc2C1=O [Example 41] | 47.2^c % | 67.7^c % | – | – | – | –
5 | Nc1cccc(N2CCc3nc(-c4ccc(N5CC[C@@H](F)C5)nc4)sc3C2=O)c1F [Example 24] | – | – | – | 56.9ª % | 84.1ª % | 110
6 | N#Cc1ccc(N2CCc3nc(-c4ccc(N5CC[C@@H](F)C5)nc4)sc3C2=O)cc1N [Example 19] | – | – | – | 76.9ª % | 92.1ª % | 54.2
7 | Nc1cccc(N2CCc3nc(-c4cnc(N5CC[C@@H](F)C5)cn4)sc3C2=O)c1F [Example 38] | – | – | – | 46.3ª % | 74.0ª % | 114
8 | Nc1cc(N2CCc3nc(-c4cnc(N5CCC[C@H](F)C5)cn4)sc3C2=O)ccc1F [Example 36] | – | – | – | 51.0ª % | – | –
9 | Nc1cc(N2CCc3nc(-c4cnc(N5CC[C@@H](F)C5)cn4)sc3C2=O)ccc1F [Example 35] | – | – | – | 53.0ª % | 74.6ª % | –
10 | Nc1cc(N2CCc3nc(-c4cnc(N5CC[C@H](F)C5)cn4)sc3C2=O)ccc1F [Example 37] | – | – | – | 54.3ª % | 74.9ª % | 79.9
11 | Nc1cc(N2CCc3nc(-c4ccc(N5CCCC5)nc4)sc3C2=O)ccc1F [Example 3, 5-(3-amino-4-fluorophenyl)-2-(6-(pyrrolidin-1-yl)pyridin-3-yl)-6,7-dihydrothiazolo[5,4-c]pyridin-4(5H)-one] | – | – | – | 62.2ª % | 91.2ª % | 73.1
12 | N#Cc1ccc(N2CCc3nc(-c4ccc(N5CC[C@H](F)C5)nc4)sc3C2=O)cc1N [Example 22] | – | – | – | 64.2ª % | 80.3ª % | –
13 | Nc1cc(N2CCc3nc(-c4ccc(N5CC[C@H](F)C5)nc4)sc3C2=O)ccc1F [Example 26, (S)-5-(3-amino-4-fluorophenyl)-2-(6-(3-fluoropyrrolidin-1-yl)pyridin-3-yl)-6,7-dihydrothiazolo[5,4-c]pyridin-4(5H)-one] | – | – | – | 40.8ª % | 70.8ª % | 9.9
14 | Cn1cc(N2CCc3nc(-c4ccc(N5CC[C@@H](F)C5)nc4)sc3C2=O)cn1 [Example 1, (R)-2-(6-(3-fluoropyrrolidin-1-yl)pyridin-3-yl)-5-(1-methyl-1H-pyrazol-4-yl)-6,7-dihydrothiazolo[5,4-c]pyridin-4(5H)-one] | – | – | – | – | – | 18.7
15 | N#Cc1cc(N2CCc3nc(-c4ccc(N5CC[C@H](F)C5)nc4)sc3C2=O)ccc1N [Example 23] | – | – | – | 35.5ª % | 76.1ª % | 100
16 | N#Cc1cc(N2CCc3nc(-c4ccc(N5CCC[C@@H](F)C5)nc4)sc3C2=O)ccc1N [Example 29] | – | – | – | 42.6ª % | 73.9ª % | 27.7

Row | SMILES | Human brain derived TDP-43 aggregates Mean % competition at 250 nM [1] | Human brain derived TDP-43 aggregates Mean % competition at 2 μM [1] | Ki [1] [nM] | Human brain derived TDP-43 aggregates Mean % competition at 250 nM [2] | Human brain derived TDP-43 aggregates Mean % competition at 2 μM [2] | Ki [2] [nM]
17 | Cn1cc(N2CCc3nc(-c4ccc(N5CC[C@H](F)C5)nc4)sc3C2=O)cn1 [Example 13] | – | – | – | 69.4ª % | 105.0ª % | –
18 | N#Cc1cc(N2CCc3nc(-c4ccc(N5CCC[C@H](F)C5)nc4)sc3C2=O)ccc1N [Example 32] | – | – | – | 44.0ª % | 80.9ª % | –
19 | N#Cc1cc(N2CCc3nc(-c4ccc(N5CC[C@@H](F)C5)nc4)sc3C2=O)ccc1N [Example 20] | – | – | – | 66.7ª % | 88.3ª % | 161
20 | Nc1cc(N2CCc3nc(-c4cnc(N5CCC(F)CC5)nc4)sc3C2=O)ccc1F [Example 49] | 63.1^c % | 65.5^c % | 117 | – | – | –
21 | N#Cc1ccc(N2CCc3nc(-c4ccc(N5CCC[C@H](F)C5)nc4)sc3C2=O)cc1N [Example 31] | – | – | – | 67.6ª % | 79.7ª % | 101
22 | Cn1cc(N2CCc3nc(-c4ccc(N5CC[C@H](F)C5)cc4)sc3C2=O)cn1 [Example 28] | – | – | – | 56.5ª % | 79.7ª % | 111
23 | N#Cc1ccc(N2CCc3nc(-c4ccc(N5CCC[C@@H](F)C5)nc4)sc3C2=O)cc1N [Example 30] | – | – | – | 55.9ª % | 75.7ª % | 86.6
24 | Cn1cc(N2CCc3nc(-c4ccc(N5CCC[C@@H](F)C5)nc4)sc3C2=O)cn1 [Example 2, (R)-2-(6-(3-fluoropiperidin-1-yl)pyridin-3-yl)-5-(1-methyl-1H-pyrazol-4-yl)-6,7-dihydrothiazolo[5,4-c]pyridin-4(5H)-one] | – | – | – | 61.0ª % | 92.5ª % | 71.7
25 | N#Cc1c(N)cccc1N1CCc2nc(-c3ccc(N4CC[C@H](F)C4)nc3)sc2C1=O [Example 21, (S)-2-amino-6-(2-(6-(3-fluoropyrrolidin-1-yl)pyridin-3-yl)-4-oxo-6,7-dihydrothiazolo[5,4-c]pyridin-5(4H)-yl)benzonitrile] | – | – | – | 22.7ª % | 40.1ª % | –
26 | Nc1ccc(N2CCc3nc(-c4ccc(N5CCCC5)nc4)sc3C2=O)cc1F [Example 15] | – | – | – | 64.6ª % | 96.4ª % | 139
27 | N#Cc1cc(N2CCc3nc(-c4ccc(N5CCCC5)nc4)sc3C2=O)ccc1N [Example 18] | – | – | – | 76.2ª % | 102.0ª % | 68.6
28 | Cn1cc(N2CCc3nc(-c4cnc(N5CCC[C@H](F)C5)nc4)sc3C2=O)cn1 [Example 45] | – | – | – | 47.0ª % | 64.3ª % | –
29 | Nc1cccc(N2CCc3nc(-c4cnc(N5CCC[C@@H](F)C5)nc4)sc3C2=O)c1F [Example 50] | 52.8^c % | 63.4^c % | – | – | – | –
30 | Nc1cc(N2CCc3nc(-c4ccc(N5CC[C@@H](F)C5)nc4)sc3C2=O)ccc1F [Example 25] | – | – | – | 66.6ª % | 83.0ª % | –
31 | Nc1cc(N2CCc3nc(-c4ccc(N5CCC[C@H](F)C5)nc4)sc3C2=O)ccc1F [Example 33] | – | – | – | 52.1ª % | 81.0ª % | 144
32 | Nc1cccc(N2CCc3nc(-c4ccc(N5CCCC5)nc4)sc3C2=O)c1F [Example 14] | – | – | – | 44.0ª % | 85.7ª % | 58.8
